Laboratory results: ChEMBL document CHEMBL1201862, “PubChem BioAssay data set” (2004)
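Compound exposure: 48 hours, 5 concentrations, 96-well plates. Abbreviation: GI50, concentration required for 50% inhibition of growth.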 Active and inactive are the calls of the source. No stated cut-off is given here; in the data, active = GI50 up to about 1.1 µM and inactive = higher. Where a SMILES comes first, the peptide text is derived from it. The star is where a group is joined. Boc = CC(C)(C)OC(=O)*; Bn = c1ccc(C*)cc1

Legend:
Assay in all cases: growth of human tumour cells (NCI), 48 h
IGROV-1 = system: IGROV-1
KM12 = system: KM12
BT-549 = system: BT-549
M14 = system: M14
SNB-19 = system: SNB-19
CCRF-CEM = system: CCRF-CEM
SN12C = system: SN12C
OVCAR-3 = system: OVCAR-3
SK-MEL-2 = system: SK-MEL-2
CAKI-1 = system: CAKI-1
SK-OV-3 = system: SK-OV-3
PC-3 = system: PC-3
SF-295 = system: SF-295
TK-10 = system: TK-10
HOP-62 = system: HOP-62
SF-268 = system: SF-268
Hs-578T = system: Hs-578T
A498 = system: A498

Measured: GI50

CCCCCc1c2nc(c(CCCCC)c3ccc([nH]3)c(CCCCC)c3nc(c(CCCCC)c4ccc1[nH]4)C=C3)C=C2
inactive: IGROV-1 > 100 µM | KM12 > 100 µM | BT-549 > 100 µM | M14 > 100 µM | SNB-19 > 100 µM | CCRF-CEM > 100 µM | SN12C > 100 µM | OVCAR-3 > 100 µM | SK-MEL-2 > 100 µM | CAKI-1 > 100 µM | SK-OV-3 > 100 µM | PC-3 > 100 µM | SF-295 > 100 µM | TK-10 > 100 µM | HOP-62 > 100 µM | SF-268 > 100 µM | Hs-578T > 100 µM

CC1=CC(=O)CC(C)(C)C1/C=C/C(C)=C/C=C/C(C)=C/C=C/C=C(C)/C=C/C=C(C)/C=C/C1=C(C)CC(O)CC1(C)C (stereo unspecified)
inactive: IGROV-1 39.1 µM | KM12 31.8 µM | M14 33 µM | CCRF-CEM 24.9 µM | OVCAR-3 25.2 µM | SK-MEL-2 > 100 µM | CAKI-1 39.3 µM | SK-OV-3 > 100 µM | PC-3 45.3 µM | SF-295 60.8 µM | TK-10 50.2 µM | HOP-62 47 µM | A498 94.2 µM | SF-268 50.9 µM | Hs-578T 38.9 µM

C=CCOC(=O)NC1C(OC(C)[C@@H](NC(=O)OCc2ccccc2)C(=O)OC(C)(C)C)OC(COC(C)=O)C(OC(C)=O)C1OC(C)=O (stereo partly specified)
inactive: IGROV-1 > 100 µM | KM12 > 100 µM | M14 46.1 µM | SNB-19 > 100 µM | CCRF-CEM 53.3 µM | SN12C 43.4 µM | OVCAR-3 > 100 µM | CAKI-1 > 100 µM | SK-OV-3 > 100 µM | PC-3 47 µM | SF-295 > 100 µM | TK-10 > 100 µM | HOP-62 > 100 µM | A498 > 100 µM | SF-268 > 100 µM | Hs-578T 72.4 µM

CCCc1nc2c(n1CC)C(=O)c1ccccc1C2=O
inactive: IGROV-1 27 µM | KM12 40.3 µM | BT-549 79.8 µM | M14 33.2 µM | SNB-19 86.9 µM | CCRF-CEM 24.5 µM | SN12C 30.5 µM | OVCAR-3 32.5 µM | SK-OV-3 21.7 µM | PC-3 34.2 µM | SF-295 56 µM | TK-10 66.1 µM | HOP-62 > 100 µM | SF-268 45.5 µM | Hs-578T > 100 µM

O=C(Nn1c(-c2ccccc2)nc2ccccc2c1=O)c1ccc(Cl)cc1
inactive: IGROV-1 > 100 µM | KM12 > 100 µM | BT-549 > 100 µM | M14 > 100 µM | SNB-19 > 100 µM | CCRF-CEM > 100 µM | SN12C > 100 µM | OVCAR-3 91.6 µM | SK-OV-3 > 100 µM | PC-3 66.4 µM | SF-295 > 100 µM | TK-10 86.3 µM | HOP-62 > 100 µM | A498 45.7 µM | SF-268 > 100 µM | Hs-578T 34 µM

Cc1ccc(-c2c(C#N)c(S)n(NS(=O)(=O)c3ccccc3)c(=O)c2C#N)cc1
inactive: IGROV-1 23.7 µM | KM12 28 µM | BT-549 28.2 µM | M14 29.9 µM | SNB-19 31.5 µM | CCRF-CEM 9.1 µM | SN12C 27.9 µM | OVCAR-3 49 µM | SK-MEL-2 43.8 µM | CAKI-1 31.9 µM | SK-OV-3 66.5 µM | PC-3 23.5 µM | SF-295 34 µM | TK-10 21.4 µM | A498 21.2 µM

CC(C)(Cl)C(Br)CCC(Br)(CCl)C(Cl)CBr (stereo unspecified)
inactive: IGROV-1 > 10 µM | KM12 > 10 µM | M14 > 10 µM | SNB-19 > 10 µM | CCRF-CEM > 10 µM | SN12C > 10 µM | OVCAR-3 > 10 µM | SK-MEL-2 > 10 µM | CAKI-1 > 10 µM | SK-OV-3 > 10 µM | PC-3 > 10 µM | SF-295 > 10 µM | TK-10 > 10 µM | HOP-62 > 10 µM | A498 > 10 µM | Hs-578T > 10 µM

O=C1Cc2c([nH]c3c(Br)cccc23)-c2ccccc2N1
inactive: IGROV-1 > 100 µM | KM12 60 µM | BT-549 > 100 µM | M14 58.5 µM | SNB-19 43.6 µM | CCRF-CEM 16.4 µM | SN12C 57.9 µM | OVCAR-3 > 100 µM | SK-MEL-2 > 100 µM | SK-OV-3 37.2 µM | PC-3 49.8 µM | SF-295 > 100 µM | HOP-62 37.1 µM | A498 > 100 µM | SF-268 77.1 µM | Hs-578T 63.5 µM

COC(=O)C(CC(C)C)NC(=O)CNC(=O)C(Cc1ccc(OCc2ccccc2)cc1)NC(=O)C(COCc1ccccc1)NC(=O)OC(C)(C)C (stereo unspecified) (Boc-S(Bn)Y(Bn)GL-OMe; configuration not given here)
inactive: IGROV-1 > 100 µM | KM12 > 100 µM | BT-549 > 100 µM | M14 > 100 µM | SNB-19 > 100 µM | SN12C > 100 µM | OVCAR-3 > 100 µM | CAKI-1 > 100 µM | SK-OV-3 > 100 µM | PC-3 > 100 µM | SF-295 > 100 µM | TK-10 > 100 µM | HOP-62 > 100 µM | SF-268 > 100 µM | Hs-578T > 100 µM
